Measurements published in patent publication US4895869A, “Phenylene, furyl, and thienyl leukotriene B4 analogues” (C. D. Searle & Co., priority 1988, dated 1990).

What was measured:
[1] = system: LTB4 induced degranulation of human neutrophils; assay: Human Neutrophil Degranulation Assay (LTB4 induced myeloperoxidase release); assay type: cell-based; conditions: cytochalasin B, LTB4 5×10^-8 M, read-out: Inhibition of LTB4 Induced Neutrophil Degranulation IC50
Text: (§1) For use in both the "LTB4 receptor Binding Assay" and the "human Neutrophil Degranulation Assay", neutrophils were purified from venous blood of normal human donors using standard techniques of dextran sedimentation, centrifugation on Histopaque® (density solution) and hypotonic lysis of erythrocytes (Boyum, A., Isolation of Leukocytes From Human Blood: Further Observations. Scand. J. Lab. Clin. Inves. 21 (Suppl. 97): 31, 1968). The purity of isolated neutrophils was ≥95%.
LTB4 induced neutrophil degranulation was determined by measuring the release of myeloperoxidase activity into the incubation medium. Neutrophils (3×10^6) in 1 ml HBSS solution were preincubated with cytochalasin B(5 μg) at 37° C. for 5 minutes, followed by preincubation with test compounds for 7 minutes. Neutrophilsere then incubated for 2 to 20 minutes with either LTB4 (5 ×10^-8 M) or the chemotactic peptide f-met-leu-phe (5×10^-6 M) to induce degranulation. Following incubation, samples were centrifuged and myleoperoxidase was extracted from the cell pellets by sonication in phosphate buffer containing 0.4% Triton X-100. Triton X-100 was also added to the supernatents to a concentration of 0.4%. The supernatants and the pellet extracts were then assayed spectrophotometrically for myeloperoxide activity by determining the rate of decomposition of H2 O2 with o-dianisidine as hydrogen donor as described by Renlund D. G., MacFarlane J. L., Christensen, R. D., Lynch R. E., and Rothstein, G., A Quantitative And Sensitive Method For Measurement Of Mveloperoxidase, Clinical Research 28:75A, 1980). Myeloperoxidase activity released into the supernatant was expressed as the percent of the average total activity (pellet plus supernatant).
The inhibition of LTB4 induced neutrophil degranulation was determined for representative compounds of this invention and their corresponding IC50 values were calculated (Table 1). The concentration of a compound which inhibited LTB4 induced neutrophil degranulation by 50% was determined to be its IC50 value.

LTB4 receptor = target: T1, LTB4 receptor (Homo sapiens, UniProt Q15722); assay: LTB4 Receptor Binding Assay (inhibition of specific binding of (3H) LTB4 to human neutrophils); conditions: 0.6 nM (3H) LTB4, 0° C., 45 minutes; for IC50: pH 7.4
T1 construct: neutrophils were purified from venous blood of normal human donors; endogenous in cells; host or cells: neutrophils purified from venous blood of normal human donors (purity at least 95%)
T1 sequence (Q15722 whole entry): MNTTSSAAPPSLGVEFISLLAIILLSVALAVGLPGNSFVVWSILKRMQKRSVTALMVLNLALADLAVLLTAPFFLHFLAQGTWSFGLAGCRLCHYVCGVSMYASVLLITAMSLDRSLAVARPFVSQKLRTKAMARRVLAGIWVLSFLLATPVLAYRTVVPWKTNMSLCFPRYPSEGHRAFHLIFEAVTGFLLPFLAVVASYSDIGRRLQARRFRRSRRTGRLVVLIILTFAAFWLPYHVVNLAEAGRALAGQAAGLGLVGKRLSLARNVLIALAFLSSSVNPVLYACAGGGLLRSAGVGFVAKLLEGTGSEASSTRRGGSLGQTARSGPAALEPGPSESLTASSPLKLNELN
Text: as §1
Neutrophils (4-6×10^6) in 1 ml of Hanks balanced salt solution containing 10 mM Hepes Buffer (HBSS), pH 7.4 and 30 μM nordihydroguaiaretic acid were incubated with 0.6 nM (^3 H) LTB4 in the presence or absence of test compounds. The incubation was carried out at 0° C. for 45 minutes and terminated by adding 5 ml of ice cold HBSS followed by rapid filtration of incubation mixture under vacuum through GF/C glass fiber filters. The filters were further washed with 10 ml HBSS and their radioactivity was determined. Specific binding was defined as the difference between total binding and nonspecific binding which was not displaced by 10-^7 M unlabeled LTB4.
The inhibition of specific binding was determined for representatives compounds of this invention, and the corresponding IC50 values calculated (Table 1). An IC50 is the concentration of the compound of interest which will inhibit the binding of LTB4 by 50% of the LTB4 receptors. For example, for the compound of Example 7, the IC50 was determined to be approximately

| IC50 [1] [nM] | Inhibition of Receptor Binding of LTB4, % inhibition (LTB4 receptor; at 10 μM) [%] | IC50 (LTB4 receptor) [nM] | Substance |
| --- | --- | --- | --- |
| 8700 | 20 | – | 7-[2-[5-(1-hydroxynonyl)thienyl]-5-hydroxy-6Z-heptenoic acid, lithium salt [Example 23] |
| 1800 | – | 5000 | 7-[2-[5-(1-hydroxynonyl)thienyl]-5-hydroxy-6Z-heptynoic acid, lithium salt [Example 22] |
| 650 | – | 1000 | Methyl 7-[4-(hydroxynonyl)phenyl]-5-hydroxy-6heptynoate [Example 11] |
